Laboratory results as given in patent publication US5846720A, “Methods of determining chemicals that modulate expression of genes associated with cardiovascular disease” (Oncogene Science, Inc., priority 1996, dated 1998).
Where two headings read alike, the source gives them in different places.

Experiments:
G-CSF promoter = experiment: G-CSF promoter/luciferase reporter assay (high-throughput screen I), G21 cells; conditions: for scored as positive in repeat assays (G-CSF): 48 independent luciferase assays, same day; for GCSF fold induction relative to solvent control: transcriptional activators; for GCSF fold induction relative to solvent control / GCSF fold inhibition relative to solvent control: Table 2, 6 h incubation; for GCSF fold inhibition relative to solvent control: transcriptional inhibitors
MMTV promoter = experiment: MMTV promoter/luciferase reporter assay (high-throughput screen I, control for specificity), M10 cells; type: cell-based, mouse; conditions: for MMTV fold induction relative to solvent control: transcriptional activators, original high-throughput assay
Procedure: pMluci and pSV2Neo, an antibiotic resistance plasmid (84), were co-transfected into NIH/3T3 mouse fibroblast cells using the calcium phosphate precipitation method (85) with a commercially available kit (Pharmacia, Piscataway N.J.). Two days later, cells were transferred to media containing 0.4 mg/ml G418 and were grown for an additional 10-14 days. G418-resistant clones were isolated by standard methods. Once sufficient cell numbers were obtained, clones were analyzed based on several criteria: constitutive luciferase production, induction of luciferase expression by dexamethasone ([…], Sigma, St. Louis, Mo.), satisfactory attachment to microtiter plates used in the high-throughput screen (see section G) and acceptable standard deviation in multiple luciferase expression assays (see below for assay protocol). This analysis was carried out using the luciferase assay conditions described above. Of the clones which satisfied the above criteria for the high throughput screen, one clone, M10, was selected for use.

hGH promoter = experiment: hGH promoter/luciferase reporter assay (high-throughput screen I), 532 cells; type: cell-based, rat; conditions: for hGH fold induction relative to solvent control: transcriptional activators
From the text: 6. a GC rat pituitary cell line, transfected with the growth hormone reporter plasmid, designated 532, deposited under ATCC Accession No. CRL 10663.

[1] = Table 2, 6 h incubation, 360 min
[2] = transcriptional inhibitors, Table 2, 6 h incubation

| Structure (SMILES) | MMTV fold induction relative to solvent control (MMTV promoter; Table 2, 6 h incubation) [fold] | GCSF fold induction relative to solvent control (G-CSF promoter) [fold] | hGH fold induction relative to solvent control (hGH promoter; Table 2, 6 h incubation) [fold] | MMTV fold inhibition relative to solvent control (MMTV promoter; [2]) [fold] | GCSF fold inhibition relative to solvent control (G-CSF promoter) [fold] | hGH fold inhibition relative to solvent control (hGH promoter; [2]) [fold] | further results |
| --- | --- | --- | --- | --- | --- | --- | --- |
| CC(=O)n1ccnc1 [#58] | – | – | – | – | – | – | scored as positive in repeat assays (G-CSF) (G-CSF promoter): scored as positives in every single one of these assays |
| CN(C)c1ccc2cc3ccc(N(C)C)cc3nc2c1 [#80] | – | – | – | – | – | – | activation of the G-CSF promoter (dose response) (G-CSF promoter; G21 cells): specifically activated the G-CSF promoter; EC50 (G-CSF promoter; read-out: ED50 (concentration of chemical resulting in 50% maximal stimulation), G-CSF reporter cell line G21, range over the three chemicals): 5 to 70 µM |
| c1ccc(-c2cccc(-c3ccccn3)n2)nc1 [#453] | – | – | – | – | – | – | effect of replacing DMSO by methanol on MMTV activation (MMTV promoter; chemical dissolved in methanol): did not affect its ability to activate the MMTV promoter; MMTV fold induction relative to solvent control (MMTV promoter; [1]): 13.3 fold |
| CC(=O)N(C)c1ccc(N)cc1 [#1374] | – | – | – | – | – | – | scored as positive in repeat assays (G-CSF) (G-CSF promoter): scored as positives in every single one of these assays |
| O=NN(O)c1ccccc1 [#1783] | – | – | – | – | – | – | scored as positive in repeat assays (G-CSF) (G-CSF promoter): scored as positive only in half of the 48 repeat assays |
| CC(=O)c1c(C)cc(NC(C)(C)C)nc1NC(C)(C)C [Chemical 40] | 0.27 | 5.62 | 0.62 | – | – | – | – |
| CC(=O)c1ccc[nH]1 [Chemical 70] | 0.85 | 0.43 | 9.26 | – | – | – | – |
| CN(C)c1ccc2cc3ccc(N(C)C)cc3nc2c1 [Chemical 80] | 0.83 | 5.87 | 0.66 | – | – | – | – |
| CN(C)c1ccc(C(=N)c2ccc(N(C)C)cc2)cc1 [Chemical 183] | – | – | – | 0.70 | 0.72 | 4.00 | – |
| O=C(c1ccccc1)c1ccncc1 [Chemical 209] | – | – | – | 0.81 | 6.66 | 1.08 | – |
| CCOC(=O)N1C(=O)c2ccccc2C1=O [Chemical 237] | 0.62 | 4.77 | 0.06 | – | – | – | – |
| Cc1c(C(=O)O)c(O)cc2c1C(=O)c1c(O)c([C@@H]3O[C@H](CO)[C@@H](O)[C@H](O)[C@H]3O)c(O)c(O)c1C2=O [Chemical 240] | – | – | – | 0.80 | 0.63 | 5.26 | – |
| ClCCN1CCCCC1 [Chemical 254] | 0.98 | 4.09 | 0.90 | – | – | – | – |
| NC(=O)N1c2ccccc2CCc2ccccc21 [Chemical 299] | 0.47 | 0.53 | 5.46 | – | – | – | – |
| CCn1c(=O)[nH]c2ccccc21 [Chemical 322] | 1.12 | 0.60 | 11.18 | – | – | – | – |
| O=c1c(O)c(-c2ccc(O)c(O)c2)oc2cc(O)ccc12 [Chemical 325] | 1.0 | 0.14 | 5.42 | – | – | – | – |
| Nc1nc(N)nc(N)n1 [Chemical 364] | 1.07 | 3.67 | 1.18 | – | – | – | – |
| O=c1c(O)c(-c2ccc(O)cc2O)oc2cc(O)cc(O)c12 [Chemical 371] | – | – | – | 0.89 | 11.11 | 0.41 | – |

| Structure (SMILES) | MMTV fold induction relative to solvent control (MMTV promoter; Table 2, 6 h incubation) [fold] | GCSF fold induction relative to solvent control (G-CSF promoter) [fold] | hGH fold induction relative to solvent control (hGH promoter; Table 2, 6 h incubation) [fold] | MMTV fold inhibition relative to solvent control (MMTV promoter; [2]) [fold] | GCSF fold inhibition relative to solvent control (G-CSF promoter) [fold] | hGH fold inhibition relative to solvent control (hGH promoter; [2]) [fold] | further results |
| --- | --- | --- | --- | --- | --- | --- | --- |
| O=C(O)c1ccc2c3c(ncnc13)-c1ccccc1C2=O [Chemical 378] | 0.59 | 4.12 | 0.26 | – | – | – | – |
| CCN(CC)CCCC(C)Nc1c2ccc(Cl)cc2nc2ccc(OC)cc12 (stereo not drawn) [Chemical 423] | 0.64 | 2.39 | 0.56 | – | – | – | – |
| O=c1ccc2[n+]([O-])c3ccc(O)cc3oc-2c1 [Chemical 427] | 0.71 | 3.14 | 0.43 | – | – | – | – |
| Cc1cc(C)nc(NS(=O)(=O)c2ccc(N)cc2)n1 [Chemical 443] | – | – | – | 0.79 | 0.60 | 4.76 | – |
| c1ccc(-c2cccc(-c3ccccn3)n2)nc1 [Chemical 453] | – | 0.79 | 0.58 | – | – | – | MMTV fold induction relative to solvent control (MMTV promoter; [1]): 13.30 fold |
| c1ncncn1 [Chemical 473] | 0.87 | > 3 | 0.50 | – | – | – | – |
| O=S(=O)(O)c1ccc2c(N=Nc3ccc(S(=O)(=O)O)c4ccccc34)c(O)c(S(=O)(=O)O)cc2c1 [Chemical 512] | – | – | – | 0.68 | 0.81 | 5.26 | – |
| CC(C=O)=CC=CC(C)=CC=CC=C(C)C=CC=C(C)C=CC1=C(C)CCCC1(C)C [Chemical 519] | 2.76 | 1.15 | 0.68 | – | – | – | – |
| O=P(O)(O)Oc1c[nH]c2ccc(Br)c(Cl)c12 [Chemical 541] | – | – | – | 0.86 | 0.90 | 6.25 | – |
| CON(C)C(=O)Nc1ccc(Cl)cc1 [Chemical 552] | 0.86 | 0.81 | 5.31 | – | – | – | – |
| CC1=CC(=C(c2cc(C)c(O)c(C(=O)O)c2)c2c(Cl)ccc(S(=O)(=O)O)c2Cl)C=C(C(=O)O)C1=O [Chemical 556] | – | – | – | 0.87 | 0.73 | 33.33 | – |
| CC(=O)NCCCC[C@H](NC(C)=O)C(=O)O [Chemical 577] | – | – | – | 0.68 | 0.64 | 4.00 | – |
| O=C(O[C@H](C(=O)O)[C@H](OC(=O)c1ccccc1)C(=O)O)c1ccccc1 [Chemical 578] | – | – | – | 0.91 | 0.65 | 4.00 | – |
| COc1ccc(CC(=O)O)cc1OC [Chemical 629] | 2.48 | 0.85 | 1.05 | – | – | – | – |
| O=C(O)CC1NC(=O)NC1=O (stereo not drawn) [Chemical 630] | – | – | – | 0.74 | 0.70 | 3.57 | – |
| O=C(O)c1[nH]c(=O)[nH]c(=O)c1I [Chemical 633] | 2.46 | 1.02 | 0.86 | – | – | – | – |
| Nc1c(O)c(S(=O)(=O)O)c(O)c2c1C(=O)c1ccccc1C2=O [Chemical 640] | – | – | – | 0.59 | 0.64 | 5.00 | – |
| C[C@]12C=CC(=O)C=C1CC[C@@H]1[C@@H]2[C@@H](O)C[C@@]2(C)[C@H]1CC[C@]2(O)C(=O)CO [Chemical 764] | – | – | – | – | – | – | MMTV fold inhibition relative to solvent control (MMTV promoter): 0.59; hGH fold inhibition relative to solvent control (hGH promoter): 4.54 |
